Results taken from patent US11179363B2, “Non-steroidal selective glucocorticoid receptor agonistic modulators (SEGRAMs) and uses thereof” (ASSOCIATION POUR LA RECHERCHE À L'IGBMC (ARI), priority 2017, dated 2021).

What was measured:
[1] = test system: dorsal skin of Balb/C mice; assay: Skin epidermis atrophy after 8-day topical treatment of dorsal skin; format: in vivo; settings: eight-day topical treatment
Text: To investigate whether, similarly to Dex, a topical administration of CpdX could result in a skin atrophy, Balb/C mice were shaved on the dorsal skin. Ethanol (vehicle), Dex, CpdX or either one of its two enantiomers CpdX(eA) or CpdX(eB), as well as the deuterated form CpdX-D3 or either one of its two enantiomers CpdX-D3(eA) or CpdX-D3(eB), were topically applied onto the dorsal skin for 8 days.
Upon completion of the treatments, RNA transcripts were extracted from dorsal skin samples and the transcripts of Kindlin-1 and REDD1 genes were analyzed by q-RT-PCR. Histological and morphometric analyses of the dorsal skin were also performed.

[2] = test system: HDM-induced asthma-like allergic lung inflammation; assay: House dust mite (HDM)-induced asthma-like allergic lung inflammation; format: in vivo, mice
Protocol: Glucocorticoids have been (Pearlman et al., 1997. Ann Allergy Asthma Immunol. 78(4):356-62), and are still, widely used in asthma therapy. In order to investigate the possible CpdX anti-inflammatory activity in vivo, mice were sensitized and challenged with either ovalbumin (OVA) or house dust mite (HDM) to induce an asthma-like allergic lung inflammation.
Mice were intranasally sensitized with 1 μg HDM from D0 to D4, and further intranasally sensitized with 10 μg HDM on D14 and D21. Mice were then subdivided into eight groups, and on D29, D30 and D31, each mouse was again intranasally challenged with […]. The first seven groups received respectively 0.5 mg/kg of body weight of Dex, CpdX, CpdX(eA), CpdX(eB), CpdX-D3, CpdX-D3(eA) or CpdX-D3(eB), while the eighth group served as a control.
On D32, the airway responsiveness was invasively determined using a computer-controlled small animal ventilator (FlexVent® system, SCIREQ Technologies). Mice were anesthetized with xylazine (15 mg/kg, i.p.), followed 15 minutes later by an i.p. injection of pentobarbital sodium (54 mg/kg). An 18-gauge metal needle was then inserted into the trachea, each mouse was connected to the FlexVent® ventilator and quasi-sinusoidally ventilated with a tidal volume of 10 mL/kg at a frequency of 150 breaths/minute and a positive end-expiratory pressure of 2 cm H2O, in order to achieve a mean lung volume close to spontaneous breathing. After baseline measurement, mice were challenged for 10 seconds with a saline aerosol and, at 4.5-minute intervals, with 50 mg/mL methacholine. Airway resistance and elastance were expressed as cmH2O.s/mL and cmH2O/mL respectively.
The lung allergic inflammation was assessed by examination of the bronchoalveolar lavage (BAL) fluid from each of these HDM-challenged mice. The total BAL cells, eosinophils, neutrophils, macrophages and lymphocytes were counted. RNA transcripts were extracted from lung samples. RNA transcripts of IL-1β, IL-6, IL-4, IL-5, IL-13, Eotaxin, CCL4, IL-10 and TNFα were analyzed by q-RT-PCR. Lung tissues were harvested and histological (with H&E staining) and immunohistochemical analyses were also carried out (with eosinophil-specific and neutrophil-specific antibodies).

[3] = Blood glucose and intraperitoneal glucose tolerance test (IPGTT) after three-month treatment; format: in vivo, B6 male mice; settings: three months; glucose i.p. injection
Protocol: B6 male mice (8-week-old) were daily subjected for three months to a subcutaneous injection of either vehicle (NaCl 0.9%), Dex, CpdX, CpdX(eA), CpdX(eB), CpdX-D3, CpdX-D3(eA) or CpdX-D3(eB) (1 mg/kg body weight, diluted in vehicle). Mice were over-night-fasted. Mouse blood glucose concentration was measured before (To) and during two hours (T120) after glucose i.p. injection ([…]).

[4] = test system: OVA-induced allergic conjunctivitis; assay: Ovalbumin (OVA)-induced allergic conjunctivitis; format: in vivo, Balb/C mice; settings: 0.1% instillation D22 to D24, 20 minutes after the last OVA challenge
Protocol: To investigate the anti-inflammatory effect of CpdX or CpdX-D3 on an allergic conjunctivitis, Balb/C mice were intraperitoneally sensitized with 50 μg OVA with alum on both days D1 and D8, and then challenged from D15 to D21 with 250 μg OVA in 5 μL of sterilized vehicle (0.9% NaCl), which were directly instilled onto the conjunctival sac. From D22 to D24, mice were divided into several groups, and received instillations with either OVA alone, OVA together with 0.1% of either Dex, CpdX, CpdX(eA), CpdX(eB), CpdX-D3, CpdX-D3(eA) or CpdX-D3(eB).
The clinical appearance of mouse eyes was evaluated 20 minutes after the last instillation on D24. Clinical signs (conjunctival hyperemia, lid edema and tearing) were scored to evaluate the occurrence and severity of conjunctivitis as described by Gimenes et al. (2015. Experimental Eye Research 134:24-32). Parameters were graded on a scale ranging from 0 to 3, (0=absence, 1=mild, 2=moderate, and 3=severe symptoms), each animal receiving a total clinical score ranging from 0 to 9. The data were expressed as mean±SEM with at least four mice per treatment.

[5] = test system: collagen-induced Th17 rheumatoid arthritis-like inflammation; assay: Collagen-induced arthritis (CIA); format: in vivo, mice (DBA-1 strain); settings: for hind paw thickness at the ankle level: i.p. 1 mg/kg daily for 10 days (T0 to T10); for RNA transcripts of pro-inflammatory genes in hind paws (IL-1β, IL-6, IL-17a, IL-17f, TNFα): i.p. 1 mg/kg daily, T10, q-RT-PCR
Protocol: Mice were treated with collagen to induce a Th17 rheumatoid arthritis-like inflammation as described by Inglis et al. (2007. Arthritis Res Ther. 9(5):R113) and Geboes et al. (2009. Arthritis Rheum. 60(2):390-5).
Male mice (DBA-1 strain) were subcutaneously-injected with 100 μg collagen per mouse on D0. The hind paw thickness at the ankle level was regularly measured with a caliper. When the ankle thickness had reached around 4 mm (T0, i.e., 30 to 50 days after the collagen injection on D0), mice were daily intraperitoneally-injected for 10 days (T0 to T10) with either vehicle (NaCl 0.9%), Dex, CpdX, CpdX(eA), CpdX(eB), CpdX-D3, CpdX-D3(eA) or CpdX-D3(eB) (1 mg/kg body weight diluted in NaCl 0.9%), and the hind paw thickness at the ankle level was daily measured with a caliper. Pictures of the hind paws were taken at days T0 and T10 (before and after the treatment with either Vehicle, Dex, CpdX, CpdX(eA), CpdX(eB), CpdX-D3, CpdX-D3(eA) or CpdX-D3(eB)), in order to assess the course of swelling.
RNA transcripts were extracted from whole hind paws of collagen-untreated and collagen-treated mice at T0 and T10. IL-1β, IL-6, IL-17a, IL-17f and TNFα transcripts were analyzed by q-RT-PCR.

[6] = HDM model, 0.5 mg/kg, D32, vs control group
[7] = HDM model, lung paraffin sections
[8] = methacholine 50 mg/mL, FlexVent
[9] = HDM model, 0.5 mg/kg, D32, vs control group; 0.5 mg/kg

With `[2H]C([2H])([2H])Oc1ccc(F)cc1C(C)(C)CC(O)(CNc1ccc2c(c1)COC2=O)C(F)(F)F` (racemic) [CpdX-D3, 5-{4-[2-(methoxy-D3)-5-fluorophenyl]-2-hydroxy-4-methyl-2-(trifluoromethyl)pentylamino}isobenzofuran-1(3H)-one] as the molecule, how does the “epidermal thickness (morphometric analyses)” value (shortened to “epidermal thickness”) [1] read?
The value was “not significantly decreased”.

What about the “number of neutrophils and macrophages in BAL” value ([2]; HDM model, 0.5 mg/kg, D32) of the same molecule?
Its value is “No significant change”.

And the “total number of BAL cells, eosinophils and lymphocytes” value (“total number of BAL cells” for short) [2, 6]?
The value was “significantly decreased”.

What about the “eosinophils in lung (immunohistochemistry, eosinophil-specific antibodies)” value ([2]; HDM model, data not shown) of the same molecule?
Its value is “decreased”.

What about the “lung expression of IL-10 and TNFα” value ([2]; HDM model, data not shown) of the same molecule?
Its value is “not affected”.

And the “neutrophils in lung (immunohistochemistry, neutrophil-specific antibody)” value ([2]; HDM model, data not shown)?
Its value is “no significant change”.

What about the “peribronchiolar and perivascular inflammatory cell infiltration (histology)” value [2, 7] of the same molecule?
The value was “strongly decreased”.

What about the “lung expression of pro-inflammatory genes (IL-1β, IL-6, IL-4, IL-5, IL-13, Eotaxin, CCL4)” value ([2]; HDM model, q-RT-PCR) of the same molecule?
The value was “significantly and similarly decreased”.

What about the “HDM-induced airway hyperresponsiveness (AHR), airway resistance and elastance” value [2, 8] of the same molecule?
Its value is “similarly reduced”.

What about the “blood glucose level during two-hour IPGTT” value [3] of the same molecule?
Its value is “no significant difference”.

And the “clinical signs of allergic conjunctivitis (conjunctival hyperemia, lid edema and tearing)” value (“clinical signs” below) [4]?
Its value is “considerably reduced”.

What about the “hind paw thickness at the ankle level” value [5] of the same molecule?
The value was “rapid decrease”.

And the “RNA transcripts of pro-inflammatory genes in hind paws (IL-1β, IL-6, IL-17a, IL-17f, TNFα)” value (“RNA transcripts” below) [5]?
Its value is “similarly repressed”.

For `[2H]C([2H])([2H])Oc1ccc(F)cc1C(C)(C)CC(O)(CNc1ccc2c(c1)COC2=O)C(F)(F)F` (single isomer, unassigned; enantiomer a) [CpdX-D3(eA), 5-{4-[2-(methoxy-D3)-5-fluorophenyl]-2-hydroxy-4-methyl-2-(trifluoromethyl)pentylamino}isobenzofuran-1(3H)-one enantiomer A], which “epidermal thickness” value [1] is on record?
Its value is “not significantly decreased”.

And the “total number of BAL cells” value [2, 9]?
Its value is “efficiently decreased”.

What about the “peribronchiolar and perivascular inflammatory cell infiltration (histology)” value [2, 7] of the same molecule?
The value was “decreased”.

And the “lung expression of pro-inflammatory genes (IL-1β, IL-6, IL-4, IL-5, IL-13, Eotaxin, CCL4)” value ([2]; HDM model, q-RT-PCR)?
Its value is “efficiently decreased”.

What about the “blood glucose level during two-hour IPGTT” value [3] of the same molecule?
Its value is “no significant difference”.

And the “clinical signs” value [4]?
Its value is “considerably reduced”.

What about the “RNA transcripts” value ([5]; 1 mg/kg) of the same molecule?
Its value is “similarly repressed”.

What does the source list for `COc1ccc(F)cc1C(C)(C)CC(O)(CNc1ccc2c(c1)COC2=O)C(F)(F)F` (racemic) [CpdX, 5-[4-(5-fluoro-2-methoxyphenyl)-2-hydroxy-4-methyl-2-(trifluoromethyl)pentylamino]-isobenzofuran-1(3H)-one]?
epidermal thickness (morphometric analyses) [1]: not significantly decreased; number of neutrophils and macrophages in BAL ([2]; HDM model, 0.5 mg/kg, D32): No significant change; total number of BAL cells, eosinophils and lymphocytes [2, 6]: significantly decreased; eosinophils in lung (immunohistochemistry, eosinophil-specific antibodies) ([2]; HDM model, data not shown): decreased; lung expression of IL-10 and TNFα ([2]; HDM model, data not shown): not affected; neutrophils in lung (immunohistochemistry, neutrophil-specific antibody) ([2]; HDM model, data not shown): no significant change; peribronchiolar and perivascular inflammatory cell infiltration (histology) [2, 7]: strongly decreased; lung expression of pro-inflammatory genes (IL-1β, IL-6, IL-4, IL-5, IL-13, Eotaxin, CCL4) ([2]; HDM model, q-RT-PCR): significantly and similarly decreased; HDM-induced airway hyperresponsiveness (AHR), airway resistance and elastance [2, 8]: similarly reduced; blood glucose level during two-hour IPGTT [3]: no significant difference; clinical signs of allergic conjunctivitis (conjunctival hyperemia, lid edema and tearing) [4]: considerably reduced; hind paw thickness at the ankle level [5]: rapid decrease; RNA transcripts of pro-inflammatory genes in hind paws (IL-1β, IL-6, IL-17a, IL-17f, TNFα) [5]: similarly repressed

With `COc1ccc(F)cc1C(C)(C)CC(O)(CNc1ccc2c(c1)COC2=O)C(F)(F)F` (single isomer, unassigned; enantiomer a) [CpdX(eA), 5-[4-(5-fluoro-2-methoxyphenyl)-2-hydroxy-4-methyl-2-(trifluoromethyl)-pentylamino]isobenzofuran-1(3H)-one enantiomer A] as the molecule, how does the “epidermal thickness” value [1] read?
The value was “not significantly decreased”.

What about the “total number of BAL cells” value [2, 9] of the same molecule?
The value was “efficiently decreased”.

And the “peribronchiolar and perivascular inflammatory cell infiltration (histology)” value [2, 7]?
Its value is “decreased”.

What about the “lung expression of pro-inflammatory genes (IL-1β, IL-6, IL-4, IL-5, IL-13, Eotaxin, CCL4)” value ([2]; HDM model, q-RT-PCR) of the same molecule?
The value was “efficiently decreased”.

What about the “HDM-induced airway hyperresponsiveness (AHR), airway resistance and elastance” value [2, 8] of the same molecule?
The value was “reduced”.

What about the “blood glucose level during two-hour IPGTT” value [3] of the same molecule?
The value was “no significant difference”.

What about the “clinical signs” value [4] of the same molecule?
The value was “considerably reduced”.

What about the “RNA transcripts” value ([5]; 1 mg/kg) of the same molecule?
The value was “similarly repressed”.
